Reference: US9309242B2, “Substituted pyrido[2,3-b]pyrazines as FGFR kinase inhibitors” (priority 2011, dated 2016)
pIC50: −log10 of the molar value.

What was measured:
FGFR1 (h) = FGFR1 (h) (Homo sapiens, UniProt P11362); assay: FGFR1 (enzymatic assay), TR-FRET; assay type: biochemical; details: read-out: FGFR 1 pIC50 (converted)
FGFR2 (h) = FGFR2 (h) (Homo sapiens, UniProt P21802); assay: FGFR2 (enzymatic assay), TR-FRET; assay type: biochemical; details: enzymatic assay; read-out: FGFR 2 pIC50 (converted)
Outline: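 At low ATP (0.4 μM), enzyme activity of human FGFR2 (150 ng/ml) toward biotinylated Flt3 substrate (500 nM) was followed with test compound present. Reactions ran in 50 mM HEPES pH 7.5, 6 mM MnCl2, 1 mM DTT, 0.1 mM Na3VO4, 0.01% Triton-X-100, 1% DMSO.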

FGFR3 (h) = FGFR3 (h) (Homo sapiens, UniProt P22607); assay: FGFR3 (enzymatic assay), TR-FRET; assay type: biochemical; details: read-out: FGFR 3 pIC50 (converted)
Excerpt: Time-Resolved Fluorescence Resonance Energy Transfer (TR-FRET) signal (ex340 nm.

FGFR4 (h) = FGFR4 (h) (Homo sapiens, UniProt P22455); assay: FGFR4 (enzymatic assay), TR-FRET; assay type: biochemical; details: FGFR 4 pIC50, enzymatic assay
Chain of FGFR4 (h) (P22455 22-802): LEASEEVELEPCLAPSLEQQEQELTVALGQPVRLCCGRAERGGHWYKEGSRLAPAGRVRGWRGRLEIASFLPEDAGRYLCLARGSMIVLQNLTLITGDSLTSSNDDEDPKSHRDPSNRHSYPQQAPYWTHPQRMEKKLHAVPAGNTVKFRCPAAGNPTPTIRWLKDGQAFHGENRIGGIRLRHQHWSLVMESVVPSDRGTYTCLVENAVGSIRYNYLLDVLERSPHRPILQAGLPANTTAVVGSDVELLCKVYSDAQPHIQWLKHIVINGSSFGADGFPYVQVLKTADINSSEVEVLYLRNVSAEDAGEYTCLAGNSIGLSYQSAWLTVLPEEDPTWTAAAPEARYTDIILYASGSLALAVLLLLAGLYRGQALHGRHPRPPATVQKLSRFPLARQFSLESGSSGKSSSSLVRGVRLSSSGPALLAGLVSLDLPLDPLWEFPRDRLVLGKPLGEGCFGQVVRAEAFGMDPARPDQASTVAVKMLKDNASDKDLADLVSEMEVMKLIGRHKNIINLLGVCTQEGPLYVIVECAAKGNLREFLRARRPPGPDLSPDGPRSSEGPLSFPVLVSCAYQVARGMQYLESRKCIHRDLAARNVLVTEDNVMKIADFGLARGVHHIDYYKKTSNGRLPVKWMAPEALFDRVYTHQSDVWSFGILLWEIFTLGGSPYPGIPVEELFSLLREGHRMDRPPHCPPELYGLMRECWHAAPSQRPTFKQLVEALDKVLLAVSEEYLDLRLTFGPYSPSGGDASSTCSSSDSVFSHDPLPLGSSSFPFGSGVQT

KDR (h) = KDR (h) (Homo sapiens, UniProt P35968); assay: KDR (VEGFR2) (enzymatic assay), TR-FRET; assay type: biochemical; details: read-out: VEGFR 2 (KDR) pIC50 (converted)
Chain of KDR (h) (P35968 20-1356): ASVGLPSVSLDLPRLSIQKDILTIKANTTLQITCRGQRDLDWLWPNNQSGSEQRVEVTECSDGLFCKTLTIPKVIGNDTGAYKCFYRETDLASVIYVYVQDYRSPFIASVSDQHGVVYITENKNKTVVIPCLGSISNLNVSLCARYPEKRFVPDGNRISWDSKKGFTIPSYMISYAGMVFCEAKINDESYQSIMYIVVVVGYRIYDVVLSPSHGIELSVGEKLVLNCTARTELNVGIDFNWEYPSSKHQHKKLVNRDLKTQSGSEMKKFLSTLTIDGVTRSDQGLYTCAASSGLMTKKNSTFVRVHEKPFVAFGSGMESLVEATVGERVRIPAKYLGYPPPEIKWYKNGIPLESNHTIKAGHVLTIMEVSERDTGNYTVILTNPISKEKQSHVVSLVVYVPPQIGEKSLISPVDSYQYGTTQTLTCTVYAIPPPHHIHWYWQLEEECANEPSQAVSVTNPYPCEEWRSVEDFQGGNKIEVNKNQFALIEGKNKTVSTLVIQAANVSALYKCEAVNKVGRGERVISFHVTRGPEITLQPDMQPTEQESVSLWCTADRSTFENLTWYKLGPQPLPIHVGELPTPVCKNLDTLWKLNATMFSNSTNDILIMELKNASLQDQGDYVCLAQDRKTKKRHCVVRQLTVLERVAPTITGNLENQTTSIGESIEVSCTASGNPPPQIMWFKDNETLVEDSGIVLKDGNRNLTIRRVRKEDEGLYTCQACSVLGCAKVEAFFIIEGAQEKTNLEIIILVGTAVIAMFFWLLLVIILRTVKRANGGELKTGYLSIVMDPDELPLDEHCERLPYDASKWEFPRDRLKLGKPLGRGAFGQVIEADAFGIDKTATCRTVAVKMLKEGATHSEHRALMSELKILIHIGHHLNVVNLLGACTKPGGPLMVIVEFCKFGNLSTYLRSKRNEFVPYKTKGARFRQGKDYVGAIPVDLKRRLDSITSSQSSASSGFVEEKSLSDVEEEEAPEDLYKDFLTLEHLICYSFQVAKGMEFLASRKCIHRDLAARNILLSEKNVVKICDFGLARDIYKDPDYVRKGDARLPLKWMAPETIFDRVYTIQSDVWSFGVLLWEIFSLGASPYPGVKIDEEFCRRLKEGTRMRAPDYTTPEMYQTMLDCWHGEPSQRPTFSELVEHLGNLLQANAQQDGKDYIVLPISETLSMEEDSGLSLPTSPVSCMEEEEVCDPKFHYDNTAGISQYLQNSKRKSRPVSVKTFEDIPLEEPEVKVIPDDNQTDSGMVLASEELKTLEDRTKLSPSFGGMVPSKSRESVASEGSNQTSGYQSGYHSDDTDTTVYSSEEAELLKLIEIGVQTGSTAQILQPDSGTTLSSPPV
Outline: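 Low-ATP (3 μM) TR-FRET kinase assay using 500 nM Btn-Flt3 peptide and 150 ng/ml enzyme, run 2 h at room temperature with 6 mM MnCl2 and 0.1 mM Na3VO4. Signal from Eu-anti-P-Tyr/SA-XL-665 is recorded in RFU.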

[1] = molecular target: T1, Ba/F3-FGFR1-transfected cells (Homo sapiens, UniProt P11362); assay: Ba/F3-FGFR1 (minus IL3) cellular proliferation assay, Alamar Blue; assay type: cell-based
T1 construct: BAF3-FGFR1 (MIN IL3) pIC50; other: minus IL3
T1 sequence (P11362 whole entry, change not shown): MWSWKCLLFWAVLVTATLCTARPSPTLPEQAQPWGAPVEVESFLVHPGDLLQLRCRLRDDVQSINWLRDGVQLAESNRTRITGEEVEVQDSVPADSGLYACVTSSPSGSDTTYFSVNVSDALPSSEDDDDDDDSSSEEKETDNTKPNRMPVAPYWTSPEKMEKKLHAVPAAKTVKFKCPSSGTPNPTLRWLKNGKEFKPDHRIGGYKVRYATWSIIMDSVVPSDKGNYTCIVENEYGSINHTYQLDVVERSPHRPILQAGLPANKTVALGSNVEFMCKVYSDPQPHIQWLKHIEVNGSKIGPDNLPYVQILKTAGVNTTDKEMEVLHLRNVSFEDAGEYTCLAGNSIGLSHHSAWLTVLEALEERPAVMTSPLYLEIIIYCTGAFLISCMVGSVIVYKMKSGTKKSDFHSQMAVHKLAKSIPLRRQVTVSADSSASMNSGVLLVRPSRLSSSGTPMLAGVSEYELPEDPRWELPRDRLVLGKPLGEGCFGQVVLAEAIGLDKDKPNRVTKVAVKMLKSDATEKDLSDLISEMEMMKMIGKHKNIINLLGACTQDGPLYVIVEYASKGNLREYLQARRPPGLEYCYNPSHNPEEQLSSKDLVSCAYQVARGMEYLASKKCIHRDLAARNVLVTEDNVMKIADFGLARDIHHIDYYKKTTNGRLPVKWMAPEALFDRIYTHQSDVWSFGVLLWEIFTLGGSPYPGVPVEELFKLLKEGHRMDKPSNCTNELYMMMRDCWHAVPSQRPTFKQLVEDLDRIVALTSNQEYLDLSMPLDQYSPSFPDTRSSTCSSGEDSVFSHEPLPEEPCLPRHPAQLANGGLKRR
Outline: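 Compound is dispensed first, then FGFR1-transfected Ba/F3 cells are added at 20000 per well in phenol red-free RPMI-1640 containing 10% FBS. After 24 h at 37 °C, Alamar Blue is added for 4 h and fluorescence is measured at 540/590 nm.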

[2] = system: Ba/F3-FGFR1-transfected cells; assay: Ba/F3-FGFR1 (plus IL3) cellular proliferation assay, counterscreen with 10 ng/ml murine IL3; assay type: cell-based; details: plus IL3 (10 ng/ml murine IL3, counterscreen); read-out: BAF3-FGFR1 (PLUS IL3) pIC50 (converted)
Outline: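 Proliferation read-out: resazurin-based Alamar Blue fluorescence (540/590 nm) after 4 h, following 24 h compound treatment of 20000 Ba/F3-FGFR1 cells per well in 10% FBS RPMI at 37° C. IL3 counterscreen used the same protocol plus 10 ng/ml murine IL3.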

[3] = molecular target: T2, Ba/F3-FGFR3-transfected cells (Homo sapiens, UniProt P22607); assay: Ba/F3-FGFR3 (minus IL3) cellular proliferation assay, Alamar Blue; assay type: cell-based
T2 construct: BAF3-FGFR3 (MIN IL3) pIC50; other: minus IL3
Outline: (§1)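 Compound dilutions were dispensed first, then 20000 FGFR3-transfected Ba/F3 cells per well in serum-containing RPMI-1640 were added. After 24 h incubation at 37° C, Alamar Blue was applied for 4 h before relative fluorescence units were recorded. In the minus-IL3 format cells grow without cytokine; the other format contains 10 ng/ml murine IL3.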

[4] = system: Ba/F3-FGFR3-transfected cells; assay: Ba/F3-FGFR3 (plus IL3) cellular proliferation assay, counterscreen with 10 ng/ml murine IL3; assay type: cell-based; details: plus IL3 (10 ng/ml murine IL3, counterscreen); read-out: BAF3-FGFR3 (PLUS IL3) pIC50 (converted)
Outline: as §1

[5] = molecular target: Ba/F3-FGFR4-transfected cells (Homo sapiens, UniProt P22455); assay: Ba/F3-FGFR4 cellular proliferation assay, Alamar Blue; assay type: cell-based
Chain of Ba/F3-FGFR4-transfected cells (P22455 whole entry, change not shown): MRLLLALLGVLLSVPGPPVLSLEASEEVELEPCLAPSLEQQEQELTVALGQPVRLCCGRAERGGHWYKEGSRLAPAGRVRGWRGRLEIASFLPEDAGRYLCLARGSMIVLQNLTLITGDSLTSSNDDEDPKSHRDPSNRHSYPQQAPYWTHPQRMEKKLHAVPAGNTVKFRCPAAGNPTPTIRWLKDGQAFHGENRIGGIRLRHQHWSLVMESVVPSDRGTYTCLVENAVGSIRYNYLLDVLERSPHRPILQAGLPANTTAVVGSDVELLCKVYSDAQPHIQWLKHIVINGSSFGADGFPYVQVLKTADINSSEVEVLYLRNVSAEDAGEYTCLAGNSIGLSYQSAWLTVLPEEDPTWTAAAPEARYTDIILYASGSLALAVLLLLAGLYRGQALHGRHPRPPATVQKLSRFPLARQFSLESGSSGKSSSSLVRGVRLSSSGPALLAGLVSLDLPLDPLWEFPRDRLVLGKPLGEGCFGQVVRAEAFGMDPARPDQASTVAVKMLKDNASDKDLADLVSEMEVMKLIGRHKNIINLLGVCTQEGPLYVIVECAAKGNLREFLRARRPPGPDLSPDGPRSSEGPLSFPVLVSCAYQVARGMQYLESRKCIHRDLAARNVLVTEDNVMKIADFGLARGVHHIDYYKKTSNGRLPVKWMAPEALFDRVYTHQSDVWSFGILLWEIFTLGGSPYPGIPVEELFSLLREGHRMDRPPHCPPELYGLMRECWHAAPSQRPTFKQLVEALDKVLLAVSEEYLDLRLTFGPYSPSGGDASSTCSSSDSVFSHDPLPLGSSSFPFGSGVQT
Outline: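 Here, cells seeded at 20000 per well were treated 24 hours with compound, then given a 4-hour Alamar Blue incubation at 37° C before RFU measurement at ex. 540 nm and em. 590 nm.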

Chain of FGFR1 (h) (P11362 22-822): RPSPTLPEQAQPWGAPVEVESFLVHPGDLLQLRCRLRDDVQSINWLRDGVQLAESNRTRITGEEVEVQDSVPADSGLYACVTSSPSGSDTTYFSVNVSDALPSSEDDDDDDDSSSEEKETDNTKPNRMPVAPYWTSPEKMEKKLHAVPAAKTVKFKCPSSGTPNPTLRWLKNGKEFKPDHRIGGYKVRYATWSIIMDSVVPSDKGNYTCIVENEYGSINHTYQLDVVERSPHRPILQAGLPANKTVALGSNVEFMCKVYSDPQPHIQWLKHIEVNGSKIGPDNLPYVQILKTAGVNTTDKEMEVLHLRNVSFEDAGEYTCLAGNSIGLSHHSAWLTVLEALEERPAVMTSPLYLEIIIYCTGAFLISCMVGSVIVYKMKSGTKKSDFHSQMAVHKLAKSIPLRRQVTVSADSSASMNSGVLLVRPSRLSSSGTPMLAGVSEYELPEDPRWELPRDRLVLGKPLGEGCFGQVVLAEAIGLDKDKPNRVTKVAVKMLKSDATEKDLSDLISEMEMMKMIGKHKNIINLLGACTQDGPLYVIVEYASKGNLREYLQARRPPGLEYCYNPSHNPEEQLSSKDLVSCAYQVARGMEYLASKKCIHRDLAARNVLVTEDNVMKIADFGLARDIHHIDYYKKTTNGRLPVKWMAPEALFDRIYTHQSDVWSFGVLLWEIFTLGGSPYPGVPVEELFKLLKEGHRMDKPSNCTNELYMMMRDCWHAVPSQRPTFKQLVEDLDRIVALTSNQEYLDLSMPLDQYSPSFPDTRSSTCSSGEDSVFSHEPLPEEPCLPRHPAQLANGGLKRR

| SMILES | IC50 (FGFR1 (h)) [nM] | IC50 (FGFR2 (h)) [nM] | IC50 (FGFR3 (h)) [nM] | pIC50 (FGFR4 (h)) | IC50 (KDR (h)) [nM] | BAF3-FGFR1 (MIN IL3) pIC50 [1] | IC50 [2] [nM] | BAF3-FGFR3 (MIN IL3) pIC50 [3] | IC50 [4] [nM] | BAF3-FGFR4 pIC50 [5] |
| --- | --- | --- | --- | --- | --- | --- | --- | --- | --- | --- |
| COc1cc(/N=c2\ccc3ncc(-c4cnn(C)c4)nc3n2CC2CCC(=O)N2CCO)c(F)c(OC)c1 (stereo not drawn) [Compound 247] | 0.603 | 2.34 | 1.32 | 8.74 | 12 | 7.51 | > 10000 | ~7.7 | > 10000 | 6.87 |
| COc1cc(OC)c(F)c(N(CC(=O)NC(C)C)c2ccc3ncc(-c4cnn(C)c4)nc3n2)c1 [Compound 249] | 3.89 | 4.79 | 7.59 | 7.48 | 224 | 6.70 | > 10000 | 6.83 | > 10000 | 6.00 |
| COc1cc(OC)cc(N(CC(O)COC(C)C)c2ccc3ncc(-c4cnn(CC(O)COC(C)C)c4)nc3n2)c1 (stereo not drawn) [Compound 250] | 4.17 | 6.03 | 4.79 | 8.06 | 120 | 6.45 | > 10000 | ~7.09 | > 10000 | 6.37 |
| COc1cc(OC)cc(N(Cc2c[nH]nn2)c2ccc3ncc(-c4cnn(C)c4)nc3n2)c1 [Compound 251] | 1.32 | 1.41 | 0.661 | 8.57 | 26.3 | 6.99 | > 10000 | ~7.6 | > 10000 | 6.57 |
| COc1cc(OC)c(F)c(N(Cc2ncc[nH]2)c2ccc3ncc(-c4cnn(C5COC5)c4)nc3n2)c1 [Compound 253] | 0.603 | 1.82 | 1.35 | 8.72 | 12 | 8.61 | > 10000 | ~8.63 | > 10000 | 7.90 |
| CCn1/c(=N/c2c(F)c(OC)cc(OC)c2F)ccc2ncc(-c3cnn(C)c3)nc21 [Compound 257] | 0.331 | 1.35 | 0.692 | 9.34 | 3.16 | 8.58 | > 10000 | ~8.66 | > 10000 | 7.98 |
| COc1cc(OC)c(F)c(N(Cc2c[nH]nn2)c2ccc3ncc(-c4cnn(C)c4)nc3n2)c1 [Compound 258] | 0.55 | 1.45 | 0.676 | 8.88 | 12.3 | 7.38 | > 10000 | 7.91 | > 10000 | 7.03 |
| COc1cc(OC)c(F)c(N(Cc2ncc[nH]2)c2ccc3ncc(N4C[C@@H](C)N[C@@H](C)C4)nc3n2)c1 [Compound 259] | 2.09 | 2.88 | 4.57 | 7.55 | 309 | 7.33 | > 10000 | 7.18 | > 10000 | 6.19 |
| CNC(=O)c1cc(F)cc(N(Cc2ncc[nH]2)c2ccc3ncc(-c4cnn(C)c4)nc3n2)c1 [Compound 261] | 1.48 | ~2.82 | 1.91 | 8.22 | 10.2 | 7.61 | > 10000 | ~7.74 | > 10000 | 6.77 |
